# Paper PMC4774911, “Biochemical Screening of Five Protein Kinases from Plasmodium falciparum against 14,000 Cell-Active Compounds” (PLoS ONE, 2016)
# Where “and” joins values, the source holds several entries; their conditions need not be identical. Identical values can stand only once.
# What was measured:
# DD2 = tested on: DD2; parameters: method as in F.J. Gamo et al., Nature 2010; details: downloaded from ChEMBL, ref F.J. Gamo et al., Nature 2010; cited from earlier work
# PKG = PKG (Plasmodium falciparum, UniProt Q8I719); experiment: PKG IC50 (supplementary data file); type: biochemical
# Sequence of PKG (Q8I719 whole entry): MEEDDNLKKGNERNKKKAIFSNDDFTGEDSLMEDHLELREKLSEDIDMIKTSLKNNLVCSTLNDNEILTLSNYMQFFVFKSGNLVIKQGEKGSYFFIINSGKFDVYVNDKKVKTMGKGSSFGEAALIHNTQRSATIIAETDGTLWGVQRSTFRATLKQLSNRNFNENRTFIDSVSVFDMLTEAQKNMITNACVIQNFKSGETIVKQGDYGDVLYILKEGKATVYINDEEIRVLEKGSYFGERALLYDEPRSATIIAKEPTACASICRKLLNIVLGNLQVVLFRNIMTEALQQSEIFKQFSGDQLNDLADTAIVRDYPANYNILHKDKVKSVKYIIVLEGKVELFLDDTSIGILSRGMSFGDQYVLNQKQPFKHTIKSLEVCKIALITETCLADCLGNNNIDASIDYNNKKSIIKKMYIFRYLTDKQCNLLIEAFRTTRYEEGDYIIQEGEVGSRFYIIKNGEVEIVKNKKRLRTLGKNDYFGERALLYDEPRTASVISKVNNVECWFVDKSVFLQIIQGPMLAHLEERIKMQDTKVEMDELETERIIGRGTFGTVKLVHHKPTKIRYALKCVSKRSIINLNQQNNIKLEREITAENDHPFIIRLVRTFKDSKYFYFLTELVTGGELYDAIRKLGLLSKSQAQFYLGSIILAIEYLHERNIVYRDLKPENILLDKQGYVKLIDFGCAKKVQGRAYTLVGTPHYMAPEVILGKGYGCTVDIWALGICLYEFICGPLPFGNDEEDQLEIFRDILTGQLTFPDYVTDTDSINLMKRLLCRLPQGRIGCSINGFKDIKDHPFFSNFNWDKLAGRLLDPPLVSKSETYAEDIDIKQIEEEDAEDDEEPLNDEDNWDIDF
# Description: Supplement pone.0149996.s003.xls, sheet "combined_1_sorted"
# 3D7 PFLDH = tested on: 3D7 PFLDH; parameters: method as in F.J. Gamo et al., Nature 2010; concentration or dose not given beside the values; details: downloaded from ChEMBL, ref F.J. Gamo et al., Nature 2010; cited from earlier work
# MASTL = target: T1, MASTL (Homo sapiens, UniProt Q96GX5); experiment: biochemical; parameters: endogenous in cells; host or cells: K562 cell extract; species or system K562 (extract); replicate k of n = 2 (each experiment ID is one independent experiment; two experiment IDs per compound); details: read-out: KDapp
# T1 sequence (Q96GX5 1-879): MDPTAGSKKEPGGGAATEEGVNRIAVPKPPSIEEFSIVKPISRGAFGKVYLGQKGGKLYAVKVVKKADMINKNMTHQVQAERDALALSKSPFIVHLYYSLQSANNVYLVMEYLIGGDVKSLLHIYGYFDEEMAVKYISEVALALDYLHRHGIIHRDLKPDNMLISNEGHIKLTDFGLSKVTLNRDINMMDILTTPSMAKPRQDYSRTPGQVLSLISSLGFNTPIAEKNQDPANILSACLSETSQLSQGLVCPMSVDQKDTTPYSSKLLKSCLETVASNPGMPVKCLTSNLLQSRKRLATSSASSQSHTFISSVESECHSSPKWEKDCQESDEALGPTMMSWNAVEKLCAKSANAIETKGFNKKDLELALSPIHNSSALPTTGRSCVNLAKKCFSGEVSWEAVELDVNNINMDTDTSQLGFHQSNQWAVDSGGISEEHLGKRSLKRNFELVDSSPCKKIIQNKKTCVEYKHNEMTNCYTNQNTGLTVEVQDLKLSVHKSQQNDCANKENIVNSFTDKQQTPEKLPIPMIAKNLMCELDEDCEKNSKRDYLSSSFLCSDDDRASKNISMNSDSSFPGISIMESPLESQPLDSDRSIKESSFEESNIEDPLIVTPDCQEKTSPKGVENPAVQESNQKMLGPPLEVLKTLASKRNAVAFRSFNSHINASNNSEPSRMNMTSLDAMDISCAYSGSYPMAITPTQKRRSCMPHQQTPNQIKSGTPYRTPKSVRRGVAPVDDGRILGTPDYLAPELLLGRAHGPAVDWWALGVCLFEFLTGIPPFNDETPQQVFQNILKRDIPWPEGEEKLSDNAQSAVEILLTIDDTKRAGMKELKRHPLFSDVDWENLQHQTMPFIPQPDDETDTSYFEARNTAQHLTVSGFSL
# PDPK1 = target: T2, PDPK1 (Homo sapiens, UniProt O15530); experiment: biochemical; parameters: endogenous in cells; host or cells: K562 cell extract; species or system K562 (extract); replicate k of n = 2 (each experiment ID is one independent experiment; two experiment IDs per compound); details: read-out: KDapp
# T2 sequence (O15530 1-556): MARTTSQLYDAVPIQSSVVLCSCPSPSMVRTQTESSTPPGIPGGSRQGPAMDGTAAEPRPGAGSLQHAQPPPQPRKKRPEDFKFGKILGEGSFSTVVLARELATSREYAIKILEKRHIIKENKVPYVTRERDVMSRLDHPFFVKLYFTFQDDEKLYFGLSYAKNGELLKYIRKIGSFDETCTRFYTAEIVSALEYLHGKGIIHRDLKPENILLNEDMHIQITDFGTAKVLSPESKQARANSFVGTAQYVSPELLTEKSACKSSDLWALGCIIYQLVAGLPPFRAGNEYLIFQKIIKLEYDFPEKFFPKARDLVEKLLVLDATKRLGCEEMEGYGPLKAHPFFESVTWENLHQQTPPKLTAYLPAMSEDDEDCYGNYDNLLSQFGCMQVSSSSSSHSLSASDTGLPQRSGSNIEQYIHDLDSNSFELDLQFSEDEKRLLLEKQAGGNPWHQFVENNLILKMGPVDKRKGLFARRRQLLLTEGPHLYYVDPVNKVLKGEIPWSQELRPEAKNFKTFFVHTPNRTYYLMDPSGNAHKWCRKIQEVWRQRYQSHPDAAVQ
# TBK1 = target: T3, TBK1 (Homo sapiens, UniProt Q9UHD2); experiment: biochemical; parameters: endogenous in cells; host or cells: K562 cell extract; species or system K562 (extract); replicate k of n = 2 (each experiment ID is one independent experiment; two experiment IDs per compound); details: read-out: KDapp
# T3 sequence (Q9UHD2 1-729): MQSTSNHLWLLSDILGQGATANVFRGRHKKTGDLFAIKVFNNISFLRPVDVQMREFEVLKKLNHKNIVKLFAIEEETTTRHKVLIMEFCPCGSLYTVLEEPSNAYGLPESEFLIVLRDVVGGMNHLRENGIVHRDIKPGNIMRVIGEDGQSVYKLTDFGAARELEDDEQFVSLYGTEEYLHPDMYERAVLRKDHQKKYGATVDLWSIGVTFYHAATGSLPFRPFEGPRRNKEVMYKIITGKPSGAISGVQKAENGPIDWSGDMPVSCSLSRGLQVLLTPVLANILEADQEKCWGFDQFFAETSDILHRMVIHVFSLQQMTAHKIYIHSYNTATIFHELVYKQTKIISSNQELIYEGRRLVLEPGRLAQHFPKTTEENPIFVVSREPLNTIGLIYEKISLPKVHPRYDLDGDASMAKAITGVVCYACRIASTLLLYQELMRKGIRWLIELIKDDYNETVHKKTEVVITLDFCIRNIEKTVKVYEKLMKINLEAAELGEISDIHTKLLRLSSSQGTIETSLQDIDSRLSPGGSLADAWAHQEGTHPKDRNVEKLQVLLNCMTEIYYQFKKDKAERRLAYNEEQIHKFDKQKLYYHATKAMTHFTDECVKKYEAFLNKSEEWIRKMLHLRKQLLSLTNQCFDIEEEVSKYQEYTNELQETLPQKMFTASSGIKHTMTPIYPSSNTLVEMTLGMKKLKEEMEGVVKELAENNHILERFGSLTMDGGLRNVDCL
compound,measurement,setting,value
CN1CCN(c2ccc(Nc3ncc(C#N)c(Nc4ccccc4C(N)=O)n3)cc2)CC1.Cl [TCMDC-134116],PCT_INHB_DD2,DD2,93%
same,IC50,PKG,103 nM
same,PCT_INHIB_3D7_PFLDH,3D7 PFLDH,0%
same,Kd,MASTL,274 nM and 597 nM
same,Kd,PDPK1,605 nM and 503 nM
same,Kd,TBK1,229 nM and 220 nM
